From paper PMC5712521, “Dendrogenin A drives LXR to trigger lethal autophagy in cancers” (Nature Communications, 2017)
Where “and” joins values, the source holds several entries; their conditions need not be identical. Equal values may be shown once.

Experiments:
B16F10 cells = experiment: Immunoblot densitometry (LC3-II); format: cell-based, mouse; conditions: 2.5 µM DDA, 24 h
Procedure: Immunoblotting was carried out as described previously. Proteins were separated on SDS-PAGE gels, electro-transferred onto polyvinylidene difluoride membranes and incubated overnight at 4 °C with the following antibodies: anti-Atg3, anti-Atg5 (D1G9), anti-Atg7 (D12B11), anti-Beclin (D40C5), anti-caspase-3 (Cell Signaling), anti-Bcl-2 (Millipore), anti-Bax (Millipore), anti-LC3 (Sigma-Aldrich), anti-LXRα (SantaCruz), anti-LXRβ (SantaCruz), anti-Nur77 (Active motif), anti-NOR1 (R&D systems), anti-PARP (Cell Signaling), anti-Vps34 (Cell Signaling), or anti-Actin (Millipore). For visualization, an ECL plus kit (Amersham Biosciences) was used, and chemiluminescence was measured by autoradiography (Supplementary Fig. 9). Specific bands were quantified with ImageQuant software.

SKMEL-2 cells = experiment: Clonogenicity inhibition; format: cell-based; conditions: Homo sapiens, SK-MEL-2; SKMEL-2 (H); 72 h; read-out: Clono IC50
From the text: (§1) Supplementary Fig. 1. a DDA inhibited m elanom a colony form ation. Melanom a cells were […]
(§2) a 0.5% solution of crystal violet in water and analyzed by microscopy. Images are representative of 5 independent experiments. b Evaluation of DDA-induced cytotoxicity (cytotox) and clonogenicity (clono) inhibition in a subset of human (H) and mouse (M) m elanom a cell lines. T he BRaf status in m elanom a cells lines is shown. […]

WM115 cells = experiment: Clonogenicity inhibition; format: cell-based; conditions: Homo sapiens, WM-115; WM115 (H); 72 h; read-out: Clono IC50
From the text: as §1, §2

[1] = target: T1, 3β-hydroxysterol-Δ8,7-isomerase (D8D7I) (Homo sapiens, UniProt Q15125); experiment: D8D7I inhibition shown by Δ8-sterol accumulation in melanoma cells; format: cell-based; conditions: B16F10 and SKMEL-28, 2.5 µM DDA, 48 h; accumulation of zymostenol and 8-dehydrocholesterol
T1 construct: endogenous in cells; host or cells: B16F10 (murine) and SKMEL-28 (human) melanoma cells
Procedure: Sterols in cell homogenates were extracted with a solvent mixture containing chloroform/methanol 2/1 (v/v) spiked with epicoprostanol as the internal standard. Lipids were partitioned in chloroform after the addition of saline and saponified by methanolic potassium hydroxide (0.5 N, 60 °C, 15 min). The fatty acids released were methylated with BF3-methanol (12%, 60 °C, 15 min) to not interfere with the chromatography of sterols. The sterols were re-extracted in hexane and silylated, as described previously. […] Sterols were identified by the fragmentogram in the scanning mode and quantified by selective monitoring of the specific ions after normalization with the internal standard epicoprostanol and calibration with weighed standards.
Supplementary Fig. 2. DD A induce d th e accum ulation of cholestero l precursors in m elanom a cells. a Quantification of sterol accum ulation in cells after 48 h tr eatm ent with or without 2.5 µM DDA. […]
accum ulation. e Representative EM im ages of cells treated for 24 h with solvent vehicle (panels 1- 2) or 2.5 µM DDA (panels 3- 4). […] Cells were treated with solvent vehicle (control) or 2.5 µM DDA for 24 h with or without 1 µ M Baf A1, the n stained with MDC and obser ved by fluorescence m icroscopy. […]

T1 sequence (Q15125 whole entry, stated change not applied): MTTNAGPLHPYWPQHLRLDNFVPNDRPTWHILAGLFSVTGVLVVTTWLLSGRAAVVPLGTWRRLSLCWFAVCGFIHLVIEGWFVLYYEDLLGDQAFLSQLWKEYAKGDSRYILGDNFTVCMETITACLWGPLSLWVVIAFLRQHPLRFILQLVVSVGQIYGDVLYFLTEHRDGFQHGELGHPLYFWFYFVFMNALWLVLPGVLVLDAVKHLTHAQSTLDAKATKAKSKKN

CC(C)CCC[C@@H](C)[C@H]1CC[C@H]2[C@@H]3C[C@@H](NCCc4cnc[nH]4)[C@@]4(O)C[C@@H](O)CC[C@]4(C)[C@H]3CC[C@]12C [DDA, Dendrogenin A]
LC3-II protein, densitometry (B16F10 cells; B16F10 siATG7): 0.8 | LC3-II protein, densitometry (B16F10 cells; B16F10 siBECN1): 1.3 | LC3-II protein, densitometry (B16F10 cells; B16F10 siNOR1 + siNur77): 0.8 | LC3-II protein, densitometry (B16F10 cells; B16F10 siNOR1): 0.8 | LC3-II protein, densitometry (B16F10 cells; B16F10 siNur77): 1.1 | LC3-II protein, densitometry (B16F10 cells; B16F10 siSC): 2.5 and 1.8 and 2.3 | LC3-II protein, densitometry (B16F10 cells; B16F10 siVPS34): 1.9 | IC50 (SKMEL-2 cells): 1400 ± 400 nM | IC50 (WM115 cells): 1500 ± 300 nM | D8D7I inhibition [1]: inhibited D8D7I
